Measurements reported in patent publication US12516056B2, “Compounds for inhibition of janus kinase 1” (MANKIND PHARMA LTD., priority 2019, dated 2026).
Counter-ions that a name gives are not always drawn.

How the values were obtained:
[1] = target: T1, Recombinant JAK1 (Homo sapiens, UniProt P23458); test: JAK biochemical assay (LANCE Ultra TR-FRET), JAK1; conditions: recombinant JAK1, TR-FRET; read-out: Biochemical Assay (μM) JAK1
T1 construct: purchased Carna Biosciences
Procedure: (§1) Recombinant JAK1, JAK2, JAK3 and TYK2 (Carna Biosciences) were used to develop biochemical assays in 50 mM HEPES pH 7.5, 1 mM EGTA, 10 mM MgCl2, 2 mM DTT and 0.01% Tween-20. […] The intensity of the light emission is proportional to the level of ULight substrate phosphorylation. Compounds which interfere with JAK enzyme activity show a lesser substrate phosphorylation and values are projected in terms of % inhibition in comparison to vehicle control.

[2] = target: T2, Recombinant JAK2 (Homo sapiens, UniProt O60674); test: JAK biochemical assay (LANCE Ultra TR-FRET), JAK2; conditions: recombinant JAK2, TR-FRET; read-out: Biochemical Assay (μM) JAK2
T2 construct: purchased Carna Biosciences
T2 sequence (O60674 whole entry): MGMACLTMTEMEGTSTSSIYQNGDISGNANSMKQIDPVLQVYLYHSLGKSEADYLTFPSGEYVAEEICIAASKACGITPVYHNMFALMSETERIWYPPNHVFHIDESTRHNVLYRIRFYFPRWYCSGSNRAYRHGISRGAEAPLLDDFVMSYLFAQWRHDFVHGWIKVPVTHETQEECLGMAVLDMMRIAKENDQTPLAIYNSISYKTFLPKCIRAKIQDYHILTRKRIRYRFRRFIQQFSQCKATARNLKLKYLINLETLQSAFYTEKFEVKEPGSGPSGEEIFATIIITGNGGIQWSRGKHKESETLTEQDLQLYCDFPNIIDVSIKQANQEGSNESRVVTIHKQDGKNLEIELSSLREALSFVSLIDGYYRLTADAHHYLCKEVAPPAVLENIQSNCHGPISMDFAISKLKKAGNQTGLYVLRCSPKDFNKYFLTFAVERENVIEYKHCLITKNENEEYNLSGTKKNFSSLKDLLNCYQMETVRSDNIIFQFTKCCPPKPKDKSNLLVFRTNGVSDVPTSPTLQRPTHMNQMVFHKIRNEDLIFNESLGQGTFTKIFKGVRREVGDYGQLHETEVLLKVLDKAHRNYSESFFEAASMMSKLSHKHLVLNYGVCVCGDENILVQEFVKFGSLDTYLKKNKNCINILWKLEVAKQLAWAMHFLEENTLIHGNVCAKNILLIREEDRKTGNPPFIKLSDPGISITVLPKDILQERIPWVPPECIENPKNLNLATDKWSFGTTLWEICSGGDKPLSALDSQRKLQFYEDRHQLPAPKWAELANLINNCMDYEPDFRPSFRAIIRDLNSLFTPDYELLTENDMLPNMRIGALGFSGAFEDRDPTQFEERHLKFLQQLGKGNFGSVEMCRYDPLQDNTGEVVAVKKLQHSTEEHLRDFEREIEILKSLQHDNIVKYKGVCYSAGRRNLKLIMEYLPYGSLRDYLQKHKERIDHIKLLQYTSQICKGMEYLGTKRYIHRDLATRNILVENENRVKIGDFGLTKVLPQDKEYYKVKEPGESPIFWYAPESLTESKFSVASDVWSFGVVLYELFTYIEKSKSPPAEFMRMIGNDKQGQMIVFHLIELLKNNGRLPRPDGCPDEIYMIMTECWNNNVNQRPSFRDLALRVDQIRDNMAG
Procedure: as §1

[3] = target: T3, Recombinant JAK3 (Homo sapiens, UniProt P52333); test: JAK biochemical assay (LANCE Ultra TR-FRET), JAK3; conditions: recombinant JAK3, TR-FRET; read-out: Biochemical Assay (μM) JAK3
T3 construct: purchased Carna Biosciences
T3 sequence (P52333 1-1124): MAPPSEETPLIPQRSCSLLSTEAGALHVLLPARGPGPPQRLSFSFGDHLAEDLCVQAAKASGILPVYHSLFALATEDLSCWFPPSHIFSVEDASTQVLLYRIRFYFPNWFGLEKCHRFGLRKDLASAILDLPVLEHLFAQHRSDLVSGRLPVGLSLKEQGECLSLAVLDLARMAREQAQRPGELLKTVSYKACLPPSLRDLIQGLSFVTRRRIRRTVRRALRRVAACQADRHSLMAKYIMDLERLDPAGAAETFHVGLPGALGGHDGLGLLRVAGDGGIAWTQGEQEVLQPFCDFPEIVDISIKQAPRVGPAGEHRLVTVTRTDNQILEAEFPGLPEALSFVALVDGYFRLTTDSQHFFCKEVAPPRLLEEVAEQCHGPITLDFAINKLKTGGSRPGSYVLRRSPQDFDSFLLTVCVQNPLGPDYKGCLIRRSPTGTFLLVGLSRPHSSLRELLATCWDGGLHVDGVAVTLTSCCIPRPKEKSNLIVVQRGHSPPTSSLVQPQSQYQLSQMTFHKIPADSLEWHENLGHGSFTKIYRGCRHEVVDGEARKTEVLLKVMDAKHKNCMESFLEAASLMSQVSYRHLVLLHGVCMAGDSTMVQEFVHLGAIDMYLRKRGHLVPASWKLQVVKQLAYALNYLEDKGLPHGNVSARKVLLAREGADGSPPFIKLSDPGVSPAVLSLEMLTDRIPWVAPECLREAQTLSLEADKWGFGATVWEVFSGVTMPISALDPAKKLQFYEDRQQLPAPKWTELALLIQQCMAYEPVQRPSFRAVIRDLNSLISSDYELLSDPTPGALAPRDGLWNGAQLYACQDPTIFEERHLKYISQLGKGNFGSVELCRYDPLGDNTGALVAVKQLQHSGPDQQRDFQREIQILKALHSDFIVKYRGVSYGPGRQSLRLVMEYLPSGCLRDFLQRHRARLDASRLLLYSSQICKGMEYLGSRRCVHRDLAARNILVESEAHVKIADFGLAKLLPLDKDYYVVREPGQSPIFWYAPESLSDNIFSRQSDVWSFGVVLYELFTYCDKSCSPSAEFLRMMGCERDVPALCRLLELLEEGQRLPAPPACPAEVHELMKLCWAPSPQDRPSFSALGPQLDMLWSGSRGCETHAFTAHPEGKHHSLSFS
Procedure: as §1

[4] = target: T4, Recombinant TYK2 (Homo sapiens, UniProt P29597); test: JAK biochemical assay (LANCE Ultra TR-FRET), TYK2; conditions: recombinant TYK2, TR-FRET; read-out: Biochemical Assay (μM) TYK2
T4 construct: purchased Carna Biosciences
T4 sequence (P29597 whole entry): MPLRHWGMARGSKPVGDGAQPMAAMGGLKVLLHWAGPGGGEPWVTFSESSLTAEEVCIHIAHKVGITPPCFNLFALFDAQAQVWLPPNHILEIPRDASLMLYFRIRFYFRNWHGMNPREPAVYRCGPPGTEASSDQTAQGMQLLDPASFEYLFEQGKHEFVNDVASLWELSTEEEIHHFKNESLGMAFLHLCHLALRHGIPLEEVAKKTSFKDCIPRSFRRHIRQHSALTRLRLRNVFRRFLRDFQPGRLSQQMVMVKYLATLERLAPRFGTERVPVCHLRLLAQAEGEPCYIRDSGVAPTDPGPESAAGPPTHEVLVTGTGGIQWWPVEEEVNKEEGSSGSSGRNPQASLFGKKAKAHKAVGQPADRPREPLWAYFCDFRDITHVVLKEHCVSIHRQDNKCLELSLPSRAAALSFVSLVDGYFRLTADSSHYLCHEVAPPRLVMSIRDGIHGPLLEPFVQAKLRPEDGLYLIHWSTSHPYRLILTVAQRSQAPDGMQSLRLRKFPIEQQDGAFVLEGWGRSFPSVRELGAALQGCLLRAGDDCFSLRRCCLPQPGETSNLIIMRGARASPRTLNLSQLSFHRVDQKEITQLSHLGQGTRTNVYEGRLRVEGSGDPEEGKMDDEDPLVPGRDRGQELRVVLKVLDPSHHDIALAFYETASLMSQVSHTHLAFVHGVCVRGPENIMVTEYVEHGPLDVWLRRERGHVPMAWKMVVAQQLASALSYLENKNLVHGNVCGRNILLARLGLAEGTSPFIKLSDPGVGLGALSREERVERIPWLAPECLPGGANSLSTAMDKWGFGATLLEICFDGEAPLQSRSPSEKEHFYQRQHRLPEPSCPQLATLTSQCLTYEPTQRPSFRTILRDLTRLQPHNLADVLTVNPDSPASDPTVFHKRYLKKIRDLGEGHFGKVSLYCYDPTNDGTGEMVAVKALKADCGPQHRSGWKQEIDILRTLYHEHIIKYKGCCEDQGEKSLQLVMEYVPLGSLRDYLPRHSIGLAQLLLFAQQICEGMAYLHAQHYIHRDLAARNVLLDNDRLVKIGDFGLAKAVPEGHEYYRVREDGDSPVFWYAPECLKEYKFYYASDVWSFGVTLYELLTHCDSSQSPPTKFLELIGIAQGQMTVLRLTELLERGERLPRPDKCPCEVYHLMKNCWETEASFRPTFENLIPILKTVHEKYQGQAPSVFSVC
Procedure: as §1

T1 sequence (P23458 whole entry): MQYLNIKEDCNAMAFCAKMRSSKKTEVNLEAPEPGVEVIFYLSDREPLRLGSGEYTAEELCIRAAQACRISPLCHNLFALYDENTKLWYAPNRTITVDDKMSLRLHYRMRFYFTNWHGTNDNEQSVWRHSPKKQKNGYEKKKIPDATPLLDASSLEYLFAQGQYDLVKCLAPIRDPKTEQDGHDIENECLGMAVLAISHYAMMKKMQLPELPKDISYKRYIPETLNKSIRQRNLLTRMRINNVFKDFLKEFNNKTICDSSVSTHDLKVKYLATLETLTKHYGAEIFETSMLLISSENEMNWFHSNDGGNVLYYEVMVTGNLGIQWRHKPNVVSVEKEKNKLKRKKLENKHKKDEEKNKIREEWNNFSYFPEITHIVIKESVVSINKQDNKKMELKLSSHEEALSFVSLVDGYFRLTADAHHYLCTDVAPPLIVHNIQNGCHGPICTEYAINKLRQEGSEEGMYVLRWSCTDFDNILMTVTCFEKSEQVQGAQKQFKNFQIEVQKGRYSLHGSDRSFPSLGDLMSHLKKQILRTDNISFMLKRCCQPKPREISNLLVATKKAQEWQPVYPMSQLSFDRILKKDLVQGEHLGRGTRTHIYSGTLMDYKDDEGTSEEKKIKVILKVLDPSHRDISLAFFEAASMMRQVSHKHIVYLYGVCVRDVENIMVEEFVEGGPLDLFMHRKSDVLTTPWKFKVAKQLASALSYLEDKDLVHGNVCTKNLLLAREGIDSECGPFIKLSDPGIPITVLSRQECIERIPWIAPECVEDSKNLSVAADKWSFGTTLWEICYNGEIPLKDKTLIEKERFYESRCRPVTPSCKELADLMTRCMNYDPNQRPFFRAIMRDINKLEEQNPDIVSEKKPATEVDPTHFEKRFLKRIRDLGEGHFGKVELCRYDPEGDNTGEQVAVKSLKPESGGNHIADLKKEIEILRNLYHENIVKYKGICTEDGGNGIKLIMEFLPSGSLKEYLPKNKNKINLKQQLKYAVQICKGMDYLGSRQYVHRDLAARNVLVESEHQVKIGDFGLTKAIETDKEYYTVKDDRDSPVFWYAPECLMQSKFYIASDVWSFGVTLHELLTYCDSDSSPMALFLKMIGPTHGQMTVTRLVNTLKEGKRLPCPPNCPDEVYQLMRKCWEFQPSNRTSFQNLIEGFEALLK

In the case of `O=C(NC1CCS(=O)(=O)CC1)N1CCN(c2ccnc3[nH]c(=O)[nH]c23)CC1` [Example 1020, N-(1,1-dioxidotetrahydro-2H-thiopyran-4-yl)-4-(2-oxo-2,3-dihydro-1H-imidazo[4,5-b]pyridin-7-yl)piperazine-1-carboxamide], the IC50 [1] is reported as > 10 µM, the IC50 [2] is reported as > 10 µM and the IC50 [3] is reported as > 10 µM. The IC50 [4] was > 10 µM.

In the case of `COC(CCS(C)(=O)=O)c1ccc(-n2cc(-c3ccnc4[nH]cnc34)cn2)nc1` (stereo not drawn) [Example 1161, 7-(1-(5-(1-methoxy-3-(methylsulfonyl)propyl)pyridin-2-yl)-1H-pyrazol-4-yl)-3H-imidazo[4,5-b]pyridine], the IC50 [1] is reported as > 1 µM, the IC50 [2] is reported as > 1 µM and the IC50 [3] is reported as > 0.5 µM. For the same compound, the IC50 [4] was > 1 µM.

For `O=C(NCC(F)(F)F)n1cc(-c2cccc3[nH]c(=O)[nH]c23)cn1` [Example 1036, N-(2,2,2-trifluoroethyl)-4-(2,3-dihydro-2-oxo-1H-benzo[d]imidazol-4-yl)-1H-pyrazole-1-carboxamide], the IC50 [1] was > 10 µM, the IC50 [2] was > 10 µM and the IC50 [3] was > 10 µM. The IC50 [4] was > 10 µM.

`CC(C)N(CCC(c1ccc(-n2cc(-c3ccnc4[nH]cnc34)cn2)nc1)C(F)(F)F)C(C)C` (stereo not drawn) [Example 1211, 3-(6-(4-(3H-imidazo[4,5-b]pyridin-7-yl)-1H-pyrazol-1-yl)pyridin-3-yl)-4,4,4-trifluoro-N,N-diisopropylbutan-1-amine] was tested, and the IC50 [1] was < 0.1 µM, the IC50 [2] was > 0.1 µM and the IC50 [3] was > 0.1 µM. For the same compound, the IC50 [4] was > 1 µM.

For `OC(c1ccc(-n2cc(-c3ccnc4[nH]cnc34)cn2)nc1)C1CC1` (stereo not drawn) [Example 1159, (6-(4-(3H-imidazo[4,5-b]pyridin-7-yl)-1H-pyrazol-1-yl)pyridin-3-yl)(cyclopropyl)methanol], the IC50 [1] was < 0.1 µM, the IC50 [2] was > 0.1 µM and the IC50 [3] was < 0.1 µM. For the same compound, the IC50 [4] was > 1 µM.

For `N#CCC(NC(=O)n1cc(-c2ccnc3[nH]c(=O)[nH]c23)cn1)C1CCOCC1` (stereo not drawn) [Example 1062, N-(2-cyano-1-(tetrahydro-2H-pyran-4-yl)ethyl)-4-(2,3-dihydro-2-oxo-1H-imidazo[4,5-b]pyridin-7-yl)-1H-pyrazole-1-carboxamide], the IC50 [1] was < 0.5 µM, the IC50 [2] was < 0.5 µM and the IC50 [3] was < 0.5 µM. For the same compound, the IC50 [4] was < 0.5 µM.

For `O=S(=O)(CC1CC1)CC(c1ccc(-n2cc(-c3ccnc4[nH]cnc34)cn2)nc1)C(F)(F)F` (stereo not drawn) [Example 1205, 7-(1-(5-(3-(cyclopropylmethylsulfonyl)-1,1,1-trifluoropropan-2-yl)pyridin-2-yl)-1H-pyrazol-4-yl)-3H-imidazo[4,5-b]pyridine], the IC50 [1] was < 0.1 µM, the IC50 [2] was > 0.1 µM and the IC50 [3] was > 0.1 µM. The IC50 [4] was > 1 µM.

With `FC(F)(F)C(CN1CCOCC1)c1ccc(-n2cc(-c3ccnc4[nH]cnc34)cn2)nc1` (stereo not drawn) [Example 1206, 7-(1-(5-(1,1,1-trifluoro-3-morpholinopropan-2-yl)pyridin-2-yl)-1H-pyrazol-4-yl)-3H-imidazo[4,5-b]pyridine] the IC50 [1] was > 0.1 µM, the IC50 [2] was > 0.1 µM and the IC50 [3] was > 0.5 µM. The IC50 [4] was > 1 µM.

`O=C(Nc1ccncc1)Nc1ccc(-c2ccnc3[nH]c(=O)[nH]c23)cc1` [Example 1009, 1-(4-(2,3-dihydro-2-oxo-1H-imidazo[4,5-b]pyridin-7-yl)phenyl)-3-(pyridin-4-yl)urea] was tested, and the IC50 [1] was > 10 µM, the IC50 [2] was > 0.5 µM and the IC50 [3] was > 1 µM. For the same compound, the IC50 [4] was > 10 µM.

With `N#CCNC(=O)c1ccc(-n2cc(-c3ccnc4[nH]cnc34)cn2)nc1` [Example 1088, 6-(4-(3H-imidazo[4,5-b]pyridin-7-yl)-1H-pyrazol-1-yl)-N-(cyanomethyl)pyridine-3-carboxamide] the IC50 [1] was > 1 µM, the IC50 [2] was > 1 µM and the IC50 [3] was > 1 µM. The IC50 [4] was > 1 µM.

In the case of `CS(=O)(=O)CC(Cc1ccc(-n2cc(-c3ccnc4[nH]cnc34)cn2)nc1)C(F)(F)F` (stereo not drawn) [Example 1194, 7-(1-(5-(3,3,3-trifluoro-2-((methylsulfonyl)methyl)propyl)pyridin-2-yl)-1H-pyrazol-4-yl)-3H-imidazo[4,5-b]pyridine], the IC50 [1] is reported as > 0.5 µM, the IC50 [2] is reported as > 0.5 µM and the IC50 [3] is reported as > 0.5 µM. For the same compound, the IC50 [4] was > 1 µM.

With `N#CCNC(=O)n1cc(-c2ccnc3[nH]c(=O)[nH]c23)cn1` [Example 1035, N-(cyanomethyl)-4-(2,3-dihydro-2-oxo-1H-imidazo[4,5-b]pyridin-7-yl)-1H-pyrazole-1-carboxamide hydrochloride] the IC50 [1] was > 10 µM, the IC50 [2] was > 10 µM and the IC50 [3] was > 10 µM. The IC50 [4] was > 10 µM.

In the case of `CS(=O)(=O)COC(c1ccc(-n2cc(-c3ccnc4[nH]cnc34)cn2)nc1)C(F)(F)F` (stereo not drawn) [Example 1140, 7-(1-(5-(1-((methylsulfonyl)methoxy)-2,2,2-trifluoroethyl)pyridin-2-yl)-1H-pyrazol-4-yl)-3H-imidazo[4,5-b]pyridine], the IC50 [1] is reported as < 0.1 µM, the IC50 [2] is reported as < 0.1 µM and the IC50 [3] is reported as < 0.1 µM. The IC50 [4] was > 1 µM.

In the case of `CS(=O)(=O)CCC(c1ccnc(-n2cc(-c3ccnc4[nH]cnc34)cn2)c1)C(F)(F)F` (stereo not drawn) [Example 1176, 7-(1-(4-(1,1,1-trifluoro-4-(methylsulfonyl)butan-2-yl)pyridin-2-yl)-1H-pyrazol-4-yl)-3H-imidazo[4,5-b]pyridine], the IC50 [1] is reported as > 1 µM, the IC50 [2] is reported as > 1 µM and the IC50 [3] is reported as > 1 µM. The IC50 [4] was > 1 µM.

For `N#CCc1ccc(-n2cc(-c3ccnc4[nH]cnc34)cn2)cc1F` [Example 1104, 2-(4-(4-(3H-imidazo[4,5-b]pyridin-7-yl)-1H-pyrazol-1-yl)-2-fluorophenyl)acetonitrile], the IC50 [1] was > 1 µM, the IC50 [2] was < 0.5 µM and the IC50 [3] was < 0.5 µM. For the same compound, the IC50 [4] was > 1 µM.

With `O=C(NCC(F)(F)F)Nc1ccc(-c2ccnc3[nH]cnc23)cc1` [Example 1010, 1-(4-(3H-imidazo[4,5-b]pyridin-7-yl)phenyl)-3-(2,2,2-trifluoroethyl)urea] the IC50 [1] was < 0.5 µM, the IC50 [2] was < 0.5 µM and the IC50 [3] was > 0.5 µM. For the same compound, the IC50 [4] was > 1 µM.

`N#CCC(=O)NCc1ccc(-n2cc(-c3ccnc4[nH]cnc34)cn2)nc1` [Example 1091, N-((6-(4-(3H-imidazo[4,5-b]pyridin-7-yl)-1H-pyrazol-1-yl)pyridin-3-yl)methyl)-2-cyanoacetamide] was tested, and the IC50 [1] was > 0.5 µM, the IC50 [2] was > 1 µM and the IC50 [3] was > 0.5 µM. For the same compound, the IC50 [4] was > 10 µM.

For `c1cc(-c2cnn(-c3ccc(CN4CCOCC4)cn3)c2)c2nc[nH]c2n1` [Example 1085, 7-(1-(5-(morpholinomethyl)pyridin-2-yl)-1H-pyrazol-4-yl)-3H-imidazo[4,5-b]pyridine], the IC50 [1] was > 1 µM, the IC50 [2] was > 1 µM and the IC50 [3] was > 1 µM. For the same compound, the IC50 [4] was > 10 µM.

With `CC(C)(CO)C(c1ccc(-n2cc(-c3ccnc4[nH]cnc34)cn2)nc1)C(F)(F)F` (stereo not drawn) [Example 1196, 3-(6-(4-(3H-imidazo[4,5-b]pyridin-7-yl)-1H-pyrazol-1-yl)pyridin-3-yl)-4,4,4-trifluoro-2,2-dimethylbutan-1-ol] the IC50 [1] was > 0.1 µM, the IC50 [2] was > 0.5 µM and the IC50 [3] was > 0.1 µM. The IC50 [4] was > 1 µM.

`CN1CCC(C(O)c2ccc(-n3cc(-c4ccnc5[nH]cnc45)cn3)nc2)CC1` (stereo not drawn) [Example 1165, (6-(4-(3H-imidazo[4,5-b]pyridin-7-yl)-1H-pyrazol-1-yl)pyridin-3-yl)(1-methylpiperidin-4-yl)methanol] was tested, and the IC50 [1] was > 1 µM, the IC50 [2] was > 1 µM and the IC50 [3] was > 1 µM. The IC50 [4] was > 1 µM.

`N#CC(NC(=O)n1cc(-c2ccnc3[nH]c(=O)[nH]c23)cn1)c1ccccc1` (stereo not drawn) [Example 1063, N-(cyano(phenyl)methyl)-4-(2,3-dihydro-2-oxo-1H-imidazo[4,5-b]pyridin-7-yl)-1H-pyrazole-1-carboxamide] was tested, and the IC50 [1] was > 0.5 µM, the IC50 [2] was < 0.5 µM and the IC50 [3] was > 0.5 µM. For the same compound, the IC50 [4] was < 0.5 µM.
